# Laboratory results reported in patent US20230255946A1 (Pure Tech LYT 100, Inc., priority 2020, published 2023).
# “Also recorded” adds a separate entry of the source.
# Assays:
# [1] = male, Sprague Dawley, rat, in vivo, 28 days
# Procedure: The protocol was amended to add additional TK male animals in Group 6 for Day 1 collection of TK samples at 875 mg/kg.
# Blood samples were collected from 3 subsets of 3 animals/sex on Day 1 and Day 28 at predose, 0.25, 0.5, 1, 2, 4, 8 and 24 hours (hr) post-dose for groups 2 to 6 and from one subset of 3 animals/sex at 0.25 hr post-dose for the vehicle group (group 1). […] Non-compartmental analysis (NCA) of plasma concentration data was conducted using Phoenix® WinNonlin®, version 8.0.
# [2] = human, in vivo
# Procedure: All Part 1 cohorts will be dosed every 12 hours with food for 5 days.
# During the treatment period (Day 1 through Day 5), participants will be administered their assigned study medication BID, every 12 h ± 0.25 h (with approximately 240 mL of non-carbonated water), 30 minutes after the start of consumption of their standardised breakfast or dinner (12 h apart). A standardised lunch will be served ≥ 4 h post breakfast and ≥ 4 h prior to dinner. An evening snack will be served ≥ 3 h following evening study medication administration. No additional fluids will be allowed during the 1 h pre- and post-doses. On Day 6, subjects will replicate mealtimes as scheduled on Day 1-5.
# In Part 1, blood samples (4 mL each) for PK will be collected for Cohorts 1, 2, 3, 4, and 6 at specified times (hours) at each as follows: • Day 1 and Day 5: 0 (pre-dose), 0.5, 1, 1.5, 2, 2.5, 3, 3.5, 4, 6, 8, 12 (pre-dose), 13, 14, 15, 16, 18 h • Day 2, Day 3 and Day 4: 0 (pre-morning-dose) and 12 h (pre-evening-dose) • Day 6: 12, 18, 24 and 36 h post-last dose • Day 7: 48 h (post-last dose)
# Pharmacokinetics for Day 1 to 3 in Part 2 (fed state) will be compared to PK for Day 1 to Day 3 in Part 2 (fasted state). Plasma PK parameters (non-compartmental or compartmental analysis as appropriate) will include, but are not limited to: • Following single dose: Tmax, tlag, Cmax, AUC0-4, AUC0-last, t½, AUC0-inf, lambda z, %AUCext, CL/F, Vz/F, Cmax/D, AUC0-last/D, AUC0-inf/D and MRT (D is dose) • After repeated doses: Ctrough, Ctrough/D • Following repeated doses on last day: Tmax, Cmax, Cavg, tlag, t½, AUC0-4, AUC0-last, AUC0-inf, lambda z, %AUCext, CLss/F, Vzss/F, MRT, PTF, Rac(AUC), Rac(Cmax), Cmax/D, AUClast/D, AUC0-inf/D and Rac (accumulation ratio)
# All cohorts (n=6 each) were dosed every 12 hours with food for 5 days at either 100, 250, 500, or 750 mg BID. […] Following processing, the samples were analyzed by HPLC on a Phenomenex Luna PFP(2), 3 µm, 50 x 2.0 mm column, and the eluates were monitored by an API4000 MS/MS detector in positive MRM mode. The data were acquired and processed by the data acquisition system Analyst® (Sciex).
# [3] = Food Effect Study Part 2 (Cohort 5), single 500 mg dose fed vs fasted; type: in vivo
# Procedure: The comparison will be based on Day 1, Day 2 and Day 3 PK plasma samples after the first dose of study drug on Day 1 under fast and fed conditions of Part 2.
# Subjects will be admitted to the CRU on Day -1 and will fast overnight for at least 10 h.
# Comparison of the PK parameters in the fed and fasted states will be performed, and analysis of PK by gender may be performed if the data allow.
# [4] = 200 mg SD-559 (pirfenidone) BID, Huang et al.; in ng/mL; cited from earlier work
# [5] = tested on: L929 cells; experiment: Survival of L929 cells (MTT); type: cell-based; conditions: 500 µM, 72 hrs
# Procedure: Five thousand L929 cells were plated in completed DMEN and incubated until confluency for 3 days. Medium was removed and complete DMEM containg Prolin (20 µg/ml) and ascorbic acid (10 uM) was added. […] 100 µL of medium was removed, 20 µL MTT solution was added for 4 hrs, then 100 µl of DMSO was added, and absorbance of developed dark pink color was determined at […].
# [6] = tested on: mouse tail model of lymphedema; experiment: Mouse tail model of lymphedema; type: in vivo; conditions: 400 mg/kg/day oral gavage once daily, by 5 weeks
# [7] = tested on: L929 cells; experiment: TGF-induced collagen synthesis in L929 cells, 6-wells (SIRCOL); type: cell-based; conditions: 500 µM
# Procedure: 100,000 L929 cells were plated in complete DMEN and incubated until confluency for 3 days. Medium was removed and complete DMEM containg Prolin (20 µg/ml) and ascorbic acid (10 µM) was added. […] Cells were further incubated for 72 hrs. Supernatant was removed, cells were washed with cold PBS, 1 ml SIRCOL reagent was added onto the cells and cells were scraped off, samples were shaken for 5 h.at RT, centrifuged at 10.000 rpm for 5 min, supernatant was removed, pellet was dissolved in 0.5 M acetic acid to remove unbound dye, and re-centrifuged at 10.000 rpm for 5 min, supernatant was removed and final pelet was dissolved in 1 ml 0.5 M NaOH, shaken at RT for 5 h, 100 µl of resulted solution was placed in 96-well and O.D was determined at 600.
# [8] = tested on: L929 cells; experiment: TGF-induced soluble collagen synthesis in L929 cells (ELISA); type: cell-based; conditions: 500 µM
# Procedure: Five thousand L929 cells were plated in complete DMEN and incubated until confluency for 3 days. Medium was removed and complete DMEM containing Prolin (20 µg/ml) and ascorbic acid (10 µM) was added. […] Cells were further incubated for 72 hrs. 200 µl supernatant of 96-well SIRCOL plate was placed onto ELISA plate and incubated O/N. Next day, supernatant was removed and 100 ul of 1%BSA in PBST was added and incubated for 2 h at RT, BSA was removed, plate was washed 3x with 200 µl of PBST, and anti-collagen type I a.b was added at 1:2000 dilution (prepared in %1 BSA in PBST), incubated at RT for 1 h, primary a.b was removed, plate was washed 3x with 200 µl PBST, and secondary anti-goat HRP was added at 1:2000 dilution, incubate at RT for 1 h, removed, plate was washed 3x with 200 µl PBST and 100 µl of TMB solution was added for color development for 15 min, then 100 µl of 2 N H2SO4 was added to stop the reaction and O.D of developed yellow color was determined at 450 nm.
# [9] = tested on: NASH mice; experiment: NASH mouse model (streptozotocin and high fat diet), liver histology; type: in vivo
# Excerpt: Non-alcoholic steatohepatitis (NASH) is characterized by lobular inflammation, hepatocyte ballooning and degeneration progressing to liver fibrosis. […] In addition, nine non-NASH mice were fed with a normal diet and monitored.
# [10] = human, in vivo, 48 h
# Excerpt: Following screening, eligible healthy volunteer subjects were admitted to a single clinical study site and were randomized to 1 of 2 treatment sequences. […] In each period, a standardized breakfast was provided to subjects prior to administration of study drug (to compare the PK profiles in the clinically relevant fed state) and plasma samples were collected over a 48-hour period after dosing for evaluation of PK. Dosing between the 2 periods was separated by a minimum of 7 days. Subjects completed the study upon completion of the 48-hour post-dose assessments following dosing period 2.
# All capsules were identical in size, shape, and external color.
# [11] = tested on: L929 cells; experiment: TGF-induced soluble fibronectin synthesis in L929 cells (ELISA); type: cell-based; conditions: 500 µM, in the absence and presence of TGF-β-induction
# Excerpt: Fibronectin is another important component of fibrotic lungs as it is induced by TGF-β and functions both as a structural component of extra cellular matrix as well as well as a ligand for integrin receptors. Just like soluble collagen, binding of fibronectin to integrin receptors induces the proliferation of fibroblast and epithelial cells of the lungs.
# [12] = MAD study, safety and tolerability (adverse events)
# Excerpt: All participants in Part 1 and Part 2 will be monitored for safety (including assessment of chemistry, haematology and urinalysis parameters, electrocardiograms [ECGs], vital signs and adverse events [AEs]) and samples will be collected for assessment of PK at predefined time points pre and post-dose as delineated in the Schedule of Events.
# Safety and tolerability will be assessed throughout Part 1, Part 2 and Part 3 of the study by monitoring AEs, physical examination, vital signs, 12-lead ECGs, clinical laboratory values (haematology panel, multiphasic chemistry panel and urinalysis), and review of concomitant treatments/medication use.
# [13] = tested on: L929 cells; experiment: TGF-induced collagen synthesis in L929 cells, 96-well plate format (SIRCOL); type: cell-based; conditions: 500 µM
# Procedure: Five thousand L929 cells were plated in complete DMEN and incubated until confluency for 3 days. Medium was removed and complete DMEM containg Prolin (20 µg/ml) and ascorbic acid (10 µM) was added. […] Cells were further incubated for 72 hrs. Supernatant was removed, 0.5% gluteraldehyde was added for 30 min at RT, removed, washed 3X with ddwater, 0.5 M acetic acid was added for 30 min at RT, removed, washed with water, air dried and 100 µl SIRCOL dye was added for 5 h at RT. Dye was removed, plate was washed extensively under running water, air dried and 200 µl of 0.5 M NaOH was added, plates were shaken at RT for 1 h, and OD was determined at 600 nm.
compound,measurement,setting,value
"O=C(O)c1ccc(=O)n(-c2ccccc2)c1 [LYT-105, 5-carboxy-pirfenidone]",exposure in rats relative to humans,[1],~7 fold
same,average ratio of metabolite to the parent (M/P) by AUC,[2],0.45
same,dose dependence of AUC96-108,[2],linear dose proportionality
same,"change in Cmax, AUC, fed vs fasted",[3]; 5-carboxypirfenidone after LYT-100 500 mg,< 5%
same,observed Cmax,[4],1476
"[2H]C([2H])([2H])c1ccc(=O)n(-c2ccccc2)c1 [LYT-100, deupirfenidone]",survival of L929 cells,[5],does not affect survival
same,swelling (tail volume) as compared to carboxymethylcellulose control,[6],significantly reduced swelling
same,collagen synthesis in the absence of added TGF-β,[7],significantly inhibits
same,TGF-induced collagen synthesis,"[7]; TGF-β 5 ng/ml, 72 hrs",inhibits
same,soluble collagen levels in the absence of TGF-β-induction,[8],signficantly reduced
same,TGF-β-induced soluble collagen levels,"[8]; TGF-β 5 ng/ml, 72 hrs",significantly inhibits
same,Fibrosis Area (%),"[9]; 30 mg/kg twice daily oral, 6-9 weeks of age, n=8, mean ± SD, p<0.01 vs Vehicle",0.64 ± 0.31 %
same,fibrosis area compared to the vehicle group,[9]; Sirius-red stained liver sections,significant reduction
same,number of animals with Steatosis score 0,"[9]; score 0 = <5%, n=8",4
same,number of animals with Steatosis score 1,"[9]; score 1 = 5-33%, n=8",3
same,number of animals with Lobular Inflammation score 1,"[9]; score 1 = <2 foci/200x, n=8",5
same,number of animals with Lobular Inflammation score 2,"[9]; score 2 = 2-4 foci/200x, n=8",3
same,number of animals with Steatosis score 2,"[9]; score 2 = >33%-66%, n=8",1
same,number of animals with Hepatocyte ballooning score 2,"[9]; score 2 = Many cells/prominent ballooning, n=8",8
same,dose dependence of AUC96-108,[2],linear dose proportionality
same,tolerability of single doses,[10],well tolerated
same,soluble fibronectin levels,[11],signficantly reduced
same,"AUC, % Change Fed vs Fasted",[3]; LYT-100 @500 mg single dose,-19%
same,"Cmax, % Change Fed vs Fasted",[3]; LYT-100 @500 mg single dose,-23%
same,"Tmax, % Change Fed vs Fasted",[3]; LYT-100 @500 mg single dose,+25%
same,tolerability with or without food,[3]; single dose of 500 mg,no evidence of any tolerability concerns
same,"abdominal discomfort, AE across all cohorts",[12],6.7%
same,"abdominal distension, AE across all cohorts",[12],10%
same,"headache, AE across all cohorts",[12],23.3%
same,"nausea, AE across all cohorts",[12],10%
same,"Abdominal Distension, incidence of TEAE","[12]; 100 mg BID, N=6",0 n (%)
same,"Abdominal discomfort, incidence of TEAE","[12]; 100 mg BID, N=6",0 n (%)
same,"Back pain, incidence of TEAE","[12]; 100 mg BID, N=6",1 (16.7%) n (%)
same,"Dysmenorrhoea, incidence of TEAE","[12]; 100 mg BID, N=6",0 n (%)
same,"Headache, incidence of TEAE","[12]; 100 mg BID, N=6",1 (16.7%) n (%)
same,"Nausea, incidence of TEAE","[12]; 100 mg BID, N=6",0 n (%)
same,"Peripheral swelling, incidence of TEAE","[12]; 100 mg BID, N=6",0 n (%)
same,"Presyncope, incidence of TEAE","[12]; 100 mg BID, N=6",0 n (%)
same,tolerability,[12]; 100 mg up through 1000 mg BID over 5 days,well-tolerated
same,"Abdominal Distension, incidence of TEAE","[12]; 250 mg BID, N=6",3 (50.0%) n (%)
same,"Abdominal discomfort, incidence of TEAE","[12]; 250 mg BID, N=6",0 n (%)
same,"Back pain, incidence of TEAE","[12]; 250 mg BID, N=6",0 n (%)
same,"Dysmenorrhoea, incidence of TEAE","[12]; 250 mg BID, N=6",2 (33.3%) n (%)
same,"Headache, incidence of TEAE","[12]; 250 mg BID, N=6",2 (33.3%) n (%)
same,"Nausea, incidence of TEAE","[12]; 250 mg BID, N=6",2 (33.3%) n (%)
same,"Peripheral swelling, incidence of TEAE","[12]; 250 mg BID, N=6",1 (16.7%) n (%)
same,"Presyncope, incidence of TEAE","[12]; 250 mg BID, N=6",1 (16.7%) n (%)
same,"Abdominal Distension, incidence of TEAE","[12]; 500 mg BID, N=6",0 n (%)
same,"Abdominal discomfort, incidence of TEAE","[12]; 500 mg BID, N=6",0 n (%)
same,"Back pain, incidence of TEAE","[12]; 500 mg BID, N=6",2 (33.3%) n (%)
same,"Dysmenorrhoea, incidence of TEAE","[12]; 500 mg BID, N=6",0 n (%)
same,"Headache, incidence of TEAE","[12]; 500 mg BID, N=6",2 (33.3%) n (%)
same,"Nausea, incidence of TEAE","[12]; 500 mg BID, N=6",1 (16.7%) n (%)
same,"Peripheral swelling, incidence of TEAE","[12]; 500 mg BID, N=6",0 n (%)
same,"Presyncope, incidence of TEAE","[12]; 500 mg BID, N=6",0 n (%)
same,"Abdominal Distension, incidence of TEAE","[12]; 750 mg BID, N=6",0 n (%)
same,"Abdominal discomfort, incidence of TEAE","[12]; 750 mg BID, N=6",2 (33.3%) n (%)
same,"Back pain, incidence of TEAE","[12]; 750 mg BID, N=6",0 n (%)
same,"Dysmenorrhoea, incidence of TEAE","[12]; 750 mg BID, N=6",0 n (%)
same,"Headache, incidence of TEAE","[12]; 750 mg BID, N=6",2 (33.3%) n (%)
same,"Nausea, incidence of TEAE","[12]; 750 mg BID, N=6",1 (16.7%) n (%)
same,"Peripheral swelling, incidence of TEAE","[12]; 750 mg BID, N=6",0 n (%)
same,"Presyncope, incidence of TEAE","[12]; 750 mg BID, N=6",0 n (%)
same,"Abdominal Distension, incidence of TEAE","[12]; 1000 mg BID, N=6",1 (16.7%) n (%)
same,"Abdominal discomfort, incidence of TEAE","[12]; 1000 mg BID, N=6",0 n (%)
same,"Back pain, incidence of TEAE","[12]; 1000 mg BID, N=6",0 n (%)
same,"Dysmenorrhoea, incidence of TEAE","[12]; 1000 mg BID, N=6",0 n (%)
same,"Headache, incidence of TEAE","[12]; 1000 mg BID, N=6",2 (33.3%) n (%)
same,"Nausea, incidence of TEAE","[12]; 1000 mg BID, N=6",0 n (%)
same,"Peripheral swelling, incidence of TEAE","[12]; 1000 mg BID, N=6",1 (16.7%) n (%)
same,"Presyncope, incidence of TEAE","[12]; 1000 mg BID, N=6",1 (16.7%) n (%)
same,participants with TEAEs considered at least possibly treatment-related,[12]; 15 of 30 participants treated with LYT-100,50.0%
same,dose-limiting toxicities,"[12]; 100 to 1000 mg BID, 5 days",No dose-limiting toxicities were observed
same,maximum tolerated dose,"[12]; 100 to 1000 mg BID, 5 days",No maximum tolerated dose was reached; also recorded: no maximally tolerated dose was reached
same,severity of adverse events at all doses,[12]; MAD study,mild and transient
same,"Abdominal Distension, incidence of TEAE","[12]; Overall LYT-100, N=30",4 (13.3%) n (%)
same,"Abdominal discomfort, incidence of TEAE","[12]; Overall LYT-100, N=30",2 (6.7%) n (%)
same,"Back pain, incidence of TEAE","[12]; Overall LYT-100, N=30",3 (10.0%) n (%)
same,"Dysmenorrhoea, incidence of TEAE","[12]; Overall LYT-100, N=30",2 (6.7%) n (%)
same,"Headache, incidence of TEAE","[12]; Overall LYT-100, N=30",9 (30.0%) n (%)
same,"Nausea, incidence of TEAE","[12]; Overall LYT-100, N=30",4 (13.3%) n (%)
same,"Peripheral swelling, incidence of TEAE","[12]; Overall LYT-100, N=30",2 (6.7%) n (%)
same,"Presyncope, incidence of TEAE","[12]; Overall LYT-100, N=30",2 (6.7%) n (%)
same,total collagen level in the absence of TGF-β induction,[13],signficantly inhibited or reduced
same,TGF-β-induced total collagen levels,"[13]; TGF-β 5 ng/ml, 72 hrs",significanly inhibited or reduced
